Key:
Format in all cases: binding
HuPrP90-231 [1] = target: T1, HuPrP90-231 (Homo sapiens, UniProt P04156); assay: biochemical
T1 construct: gene PRNP

HuPrP90-231 [2] = target: T1, HuPrP90-231
HuPrP23-231 = target: T2, HuPrP23-231 (Homo sapiens, UniProt P04156); details: 0.3-1 mM compound, 20 mM HEPES pH 7.4, 150 mM NaCl, 3% DMSO, 298 K
T2 construct: gene PRNP

Q: What does the source list for `Cc1nc2cc(Cl)c(Cl)cc2[nH]1` [compound 1, 5,6-dichloro-2-methyl-1H-benzimidazole]?
A: Kd (HuPrP90-231 [1]): > 1000 µM; decrease in melting temperature (HuPrP90-231 [2]): ~ 0.2 °C; 1H-15N TROSY NMR chemical shift perturbation (HuPrP23-231): we observed similar resonance shifts in the full-length protein HuPrP23-231

Source: article doi:10.1101/2020.06.18.159418v1 (biorxiv, 2020)
